The values that follow come from US7179823B1, “5-membered n-heterocyclic compounds with hypoglycemic and hypolipidemic activity” (Takeda Pharmaceutical Company Limited, priority 1999, dated 2007).

As usually defined, the melting point is the temperature, or range, at which the solid turns liquid. As for `O=C(O)CCc1cn(Cc2cc(OCc3ccccc3)cc(OCc3csc(-c4cnccn4)n3)c2)cc1-c1ccccc1` [Example 75, 3-[1-[3-benzyloxy-5-[2-(2-pyrazinyl)-4-thiazolylmethoxy]benzyl]-4-phenyl-3-pyrrolyl]propionic acid], the melting point was 109 to 110 °C.
To `CCOC(=O)c1cn(Cc2ccc(OCc3ccccc3)cc2)nc1-c1ccccc1` [Example 76, ethyl 1-(4-benzyloxybenzyl)-3-phenyl-1H-pyrazole-4-carboxylate] belongs 102 to 103 °C; to `O=C(O)CCc1cn(Cc2ccc(OCc3ccccc3)cc2)nc1-c1ccccc1` [Example 77, 3-[1-(4-benzyloxybenzyl)-3-phenyl-1H-pyrazol-4-yl]propionic acid], 147 to 148 °C.
To `Cc1oc(-c2ccncc2)nc1COc1ccc(Cn2cc(CCC(=O)O)c(-c3ccccc3)n2)cc1` [Example 83, 3-[1-[4-[5-methyl-2-(4-pyridyl)-4-oxazolylmethoxy]benzyl]-3-phenyl-1H-pyrazol-4-yl]propionic acid] belongs 154 to 155 °C; to `O=C(O)CCc1cn(Cc2ccc(OCc3noc(-c4ccccc4)n3)cc2)nc1-c1ccccc1` [Example 85, 3-[3-phenyl-1-[4-(5-phenyl-1,2,4-oxadiazole-3-ylmethoxy)benzyl]-1H-pyrazol-4-yl]propionic acid], 166 to 167 °C; to `O=C(O)CCc1cn(Cc2ccc(OCc3cccnc3)cc2)nc1-c1ccccc1` [Example 91, 3-[3-phenyl-1-[4-(3-pyridylmethoxy)benzyl]-1H-pyrazol-4-yl]propionic acid], 112 to 113 °C.
The molecule `O=C(O)c1cn(Cc2ccc(OCc3ccccc3)cc2)nc1-c1ccccc1` [Example 92, 1-(4-benzyloxybenzyl)-3-phenyl-1H-pyrazol-4-carboxylic acid] registered a melting point of 152 to 153 °C.
In turn, `Cc1oc(-c2ccccc2)nc1COc1ccc(Cn2cc(C(=O)O)c(-c3ccccc3)n2)cc1` [Example 93, 1-[4-(5-methyl-2 phenyl-4-oxazolylmethoxy)benzyl]-3-phenyl-1H-pyrazol-4-carboxylic acid] registered a melting point of 165 to 166 °C.
Under `O=C(O)c1cn(Cc2ccc(OCc3csc(-c4ccccc4)n3)cc2)nc1-c1ccccc1` [Example 94, 3-phenyl-1-[4-(2-phenyl-4-thiazolylmethoxy)benzyl]-1H-pyrazol-4-carboxylic acid] stands 119 to 120 °C; under `Cc1oc(-c2ccccc2)nc1COc1ccc(Cn2cc(CCCC(=O)O)c(-c3ccccc3)n2)cc1` [Example 96, 4-[1-[4-(5-methyl-2-phenyl-4-oxazolylmethoxy)benzyl]-3-phenyl-1H-pyrazole-4-yl]butanoic acid], 118 to 119 °C.
The molecule `Cc1oc(-c2ccccc2)nc1COc1ccc(Cn2cc(CCCCC(=O)O)c(-c3ccccc3)n2)cc1` [Example 97, 5-[1-[4-(5-methyl-2-phenyl-4-oxazolylmethoxy)benzyl]-3-phenyl-1H-pyrazol-4-yl]pentanoic acid] had a melting point of 109 to 110 °C.
Under `Cc1oc(-c2ccccc2)nc1COc1ccc(Cn2cc(CCC(=O)O)c(-c3ccc(C(F)(F)F)cc3)n2)cc1` [Example 98, 3-[1-[4-(5-methyl-2-phenyl-4-oxazolylmethoxy)benzyl]-3-(4-trifluoromethylphenyl)-1H-pyrazol-4-yl]propionic acid] stands 149 to 150 °C; under `COc1ccc(-c2nn(Cc3ccc(OCc4nc(-c5ccccc5)oc4C)cc3)cc2CCC(=O)O)cc1` [Example 102, 3-[3-(4-methoxyphenyl)-1-[4-(5-methyl-2-phenyl-4-oxazolylmethoxy)benzyl]-1H-pyrazol-4-yl]propionic acid], 137 to 138 °C.
Under `Cc1oc(-c2ccco2)nc1COc1ccc(Cn2cc(CCC(=O)O)c(-c3ccc(C(F)(F)F)cc3)n2)cc1` [Example 103, 3-[1-[4-[2-(2-furyl)-5-methyl-4-oxazolylmethoxy)benzyl]-3-(4-trifluoromethylphenyl)-1H-pyrazol-4-yl]propionic acid] stands 92 to 93 °C.
Take `Cc1oc(-c2ccco2)nc1COc1ccc(Cn2cc(CCC(=O)O)c(-c3ccc(F)cc3)n2)cc1` [Example 105, 3-[3-(4-fluorophenyl)-1-[4-[2-(2-furyl)-5-methyl-4-oxazolylmethoxy)benzyl]-1H-pyrazol-4-yl]propionic acid]: the melting point is 125 to 126 °C.
To `Cc1oc(-c2ccccc2)nc1COc1ccc(Cn2cc(C(=O)O)c(C(C)C)n2)cc1` [Example 106, 3-isopropyl-1-[4-(5-methyl-2-phenyl-4-oxazolylmethoxy)benzyl]-1H-pyrazol-4-carboxylic acid] belongs 194 to 195 °C; to `Cc1oc(-c2ccccc2)nc1COc1ccc(Cn2cc(CCC(=O)O)c(C(C)C)n2)cc1` [Example 108, 3-[3-isopropyl-1-[4-(5-methyl-2-phenyl-4-oxazolylmethoxy)benzyl]-1H-pyrazol-4-yl]propionic acid], 97 to 98 °C; to `CCCc1c(CCC(=O)O)cnn1Cc1ccc(OCc2nc(-c3ccccc3)oc2C)cc1` [Example 112, 3-[1-[4-(5-methyl-2-phenyl-4-oxazolylmethoxy)benzyl]-5-propyl-1H-pyrazol-4-yl]propionic acid], 158 to 159 °C.
As for `Cc1oc(-c2ccccc2)nc1CCOc1ccc(Cn2cc(CCC(=O)O)c(-c3ccccc3)n2)cc1` [Example 114, 3-[1-[4-[2-(5-methyl-2-phenyl-4-oxazolyl)ethoxy]benzyl]-3-phenyl-1H-pyrazol-4-yl]propionic acid], the melting point was 142 to 143 °C.
Under `Cc1oc(-c2ccccc2)nc1COc1ccc(CCn2cc(CCC(=O)O)c(-c3ccccc3)n2)cc1` [Example 116, 3-[1-[2-[4-(5-methyl-2-phenyl-4-oxazolylmethoxy)phenyl]ethyl]-3-phenyl-1H-pyrazol-4-yl]propionic acid] stands 85 to 86 °C.
The molecule `Cc1oc(-c2ccccc2)nc1COc1ccc(Cn2cc(CCC(=O)O)cn2)cc1` [Example 142, 3-[1-[4-(5-methyl-2-phenyl-4-oxazolylmethoxy)benzyl]-1H-pyrazol-4-yl]propionic acid] displayed a melting point of 124 to 125 °C.
Under `CCOc1nn(Cc2ccc(OCc3ccc4ccccc4n3)cc2)cc1CCC(=O)O` [Example 209, 3-[3-ethoxy-1-[4-(2-quinolylmethoxy)benzyl]-1H-pyrazol-4-yl]propionic acid] stands 140 to 141 °C.
Under `CCOc1nn(Cc2ccnc(OCc3nc(-c4ccccc4)oc3C)c2)cc1CCC(=O)O` [Example 211, 3-[3-ethoxy-1-[2-(5-methyl-2-phenyl-4-oxazolylmethoxy)-4-pyridylmethyl]-1H-pyrazol-4-yl]propionic acid] stands 114 to 115 °C.
As for `CCOc1nn(Cc2cncc(OCc3nc(-c4ccccc4)oc3C)c2)cc1CCC(=O)O` [Example 213, 3-[3-ethoxy-1-[5-(5-methyl-2-phenyl-4-oxazolylmethoxy)-3-pyridylmethyl]-1H-pyrazol-4-yl]propionic acid], the melting point fell in the range of 133 to 134 °C.
To `CCOC(=O)CCc1cn(Cc2ccc(OC)c(OCc3nc(-c4ccccc4)oc3C)c2)nc1OCC` [Example 214, ethyl 3-[3-ethoxy-1-[4-methoxy-3-(5-methyl-2-phenyl-4-oxazolylmethoxy)benzyl]-1H-pyrazol-4-yl]propionate] belongs 109 to 110 °C.
